Experimental data reported in patent publication US20250345378A1 (priority 2022, published 2025).
Like-named read-outs stand apart in the source and are kept apart here.

Test system: 88 urinary tract infection E. coli isolates
Format: cell-based, Escherichia coli
Conditions: for Host Range % on MDR Subset (n = 21), Combination: Antibiotic + LBP-EC01 v.2 / Host Range % on all Strains (n = 88), Combination: Antibiotic + LBP-EC01 v.2 / Host Range % on Beta-lactam-Resistant Subset (n = 31), Combination: Antibiotic + LBP-EC01 v.2: antibiotic combined with LBP-EC01 v.2; for Host Range % on all Strains (n = 88), Combination: Antibiotic + CK618 v.2: antibiotic at breakpoint concentration plus cocktail 1 × 10^6 PFU/ml per bacteriophage
Protocol: Phage cocktail CK618 was tested in combination with and alongside antibiotics against two isolate panels. The first assay used a panel of 88 contemporaneous urinary tract infection (UTI) isolates from North America, Europe, Latin America, and Asia. […] The second assay used a panel made up of a 300-strain clinical isolate panel (Table 14) with an additional 4 strains of interest. […] Four of the same SOC antibiotics tested against the 88-isolate panel were tested against this panel. The non-SOC antibiotics were not included due to their limited use in clinical settings, and nitrofurantoin was not included due to the low probability of resistance to this drug.
For both isolate panels, antibiotic concentrations tested were determined by using Clinical and Laboratory Standards Institute (CLSI) or European Committee on Antimicrobial Susceptibility Testing (EUCAST) breakpoints at concentrations that kill susceptible isolates but allow intermediate or resistant isolates to grow in the standard AST microdilution assay (Table 17).
The composition of the proposed Phase 2 CRISPR-enhanced bacteriophage (CRISPR-phage, hereafter termed ‘crPhage’) cocktail (CK618) has been updated from the CK570 to include six bacteriophages as compared to three bacteriophages in CK570. Bacteriophage cocktail CK618, was prepared such that all bacteriophages had equivalent titers in the final cocktail. The cocktail was then mixed with bacteria to obtain final titers of 1×10^6 plaque-forming unit (PFU)/mL/phage for the cocktail and 1×10^5 colony-forming unit (CFU)/mL for the bacteria, resulting in a multiplicity of infection (MOI) of 10 for each bacteriophage in a sample. Briefly, 5 μl of each sample (CK618 alone, CK618 and antibiotics, antibiotics alone, or medium alone) was added to 5 μl of optical density (OD)-normalized bacterial isolate and 40 μl LB medium. Reactions were incubated at 37° C. with shaking and OD measurements were taken each hour for 20 hours.
Host range percentage is the percent of isolates that responded to treatment of antibiotics or CK618. In the case of the 88-isolate panel, results were analyzed on the complete panel as well as the subset of classified as multidrug-resistant (MDR) (n=21) and beta-lactam-resistant (n=31).
The first assay used a panel of 88 contemporaneous isolates. Twenty-one of those strains are classified as MDR, with resistance to 3 or more antibiotic classes. […] The second assay used the panel made up of a 300-strain clinical isolate panel with an additional 4 strains of interest.
Antibiotic concentrations tested were determined by using CLSI or EUCAST breakpoints at concentrations that kill susceptible strains but allow intermediate or resistant strains to grow in the standard AST microdilution assay (Table 27). LBP-EC01 v.2 was combined with bacteria resulting in a MO of 10 for each bacteriophage in a sample. In the case of the 88-isolate panel, results were analyzed on the complete panel as well as the subset of isolates classified as multidrug-resistant (MDR) (n=21) and beta-lactam-resistant (n=31).

[1] = 88-isolate panel, MDR subset, single agent
[2] = 88-isolate panel, all strains, single agent
[3] = 88-isolate panel, beta-lactam-resistant subset
[4] = 88-isolate panel, beta-lactam-resistant subset, single agent
[5] = antibiotic at breakpoint concentration (Table 17), cocktail 1 × 10^6 PFU/ml per bacteriophage, MOI 10

| SMILES | Host Range % on Beta-lactam-Resistant Subset (n = 31), Combination: Antibiotic + CK618 v.2 (88-isolate panel) [%] | Host Range % on Beta-lactam-Resistant Subset (n = 31), Single agent treatment (88-isolate panel) [%] | Host Range % on MDR Subset (n = 21), Combination: Antibiotic + CK618 v.2 (88-isolate panel) [%] | Host Range % on MDR Subset (n = 21), Single agent treatment (88-isolate panel) [%] | Host Range % on MDR Subset (n = 21), Combination: Antibiotic + LBP-EC01 v.2 (88-isolate panel, MDR subset) [%] | Host Range % on MDR Subset (n = 21), Single agent treatment [1] [%] | Host Range % on all Strains (n = 88), Combination: Antibiotic + LBP-EC01 v.2 (88-isolate panel, all strains) [%] | Host Range % on all Strains (n = 88), Single agent treatment [2] [%] | Host Range % on Beta-lactam-Resistant Subset (n = 31), Combination: Antibiotic + LBP-EC01 v.2 [3] [%] | Host Range % on Beta-lactam-Resistant Subset (n = 31), Single agent treatment [4] [%] | Host Range % on all Strains (n = 88), Single agent treatment [5] [%] | Host Range % on all Strains (n = 88), Combination: Antibiotic + CK618 v.2 [%] |
| --- | --- | --- | --- | --- | --- | --- | --- | --- | --- | --- | --- | --- |
| C=CC1=C(C(=O)O)N2C(=O)[C@@H](NC(=O)/C(=N\O)c3csc(N)n3)[C@H]2SC1 [Cefdinir] | 78.5 | 12.9 | 74.6 | 14.3 | 74.6 | 14.3 | 87.5 | 48.9 | 78.5 | 12.9 | 48.9 | 87.5 |
| CO/N=C(\C(=O)N[C@@H]1C(=O)N2C(C(=O)O)=C(CSc3nc(=O)c(=O)[nH]n3C)CS[C@H]12)c1csc(N)n1 [Ceftriaxone] | 81.7 | 15.1 | 77.8 | 20.6 | 77.8 | 20.6 | 92.4 | 64.4 | 81.7 | 15.1 | 64.4 | 92.4 |
